Data published in patent US7985766B2, “Combination of anticholineric and β mimetics for the treatment of respiratory diseases” (MEDA Pharma GmbH & Co. KG, priority 2004, dated 2011).
Where two headings read alike, the source gives them in different places.

Test system: guinea pigs
Details: for inhibition of acetylcholine-induced bronchoconstriction (bronchodilatory effect): 1 μg/kg, single drug; for inhibition of acetylcholine-induced bronchoconstriction (bronchodilatory effect) / inhibition of the bronchospasm: i.th.; for inhibition of acetylcholine-induced bronchoconstriction, dose dependence: i.th. 1-10 μg/kg, acetylcholine 10 μg/kg i.v., anesthetized male guinea pigs
Method: After cannulating the trachea, animals were respired using a small animal respiratory pump with a constant tidal volume and a rate of 60 breaths/min. The lung resistance was measured by using a rodent lung function recording system (MUMED, London, UK). Compounds were given intravenously (i.v.) via a catheter placed in the right jugular vein. After surgery, the animals were allowed to stabilize. 10 min before acetylcholine (10 μg/kg, i.v.) administration, the guinea pigs were disconnected from the respirator and either vehicle (10 mg/lactose) or different amounts of drugs (blended with lactose) were administered intratracheally (i.th.) using a syringe. The trachea was then reconnected to the respirator and changes in pulmonary mechanics were recorded. Acetylcholine (10 μg/kg) was injected intravenously in every 10 minutes for 60 min.

Compound | inhibition of acetylcholine-induced bronchoconstriction (bronchodilatory effect) | inhibition of the bronchospasm (3 μg/kg) | inhibition of the bronchospasm (10 μg/kg) | inhibition of acetylcholine-induced bronchoconstriction, dose dependence
C[N+]1(C)CC[C@@H](OC(=O)[C@](O)(c2ccccc2)C2CCCC2)C1.[Br-] [R,R-glycopyrrolate] | not effective | ca. 40% | about 80% | dose-dependently inhibited
COc1ccc(CC(C)NCC(O)c2ccc(O)c(NC=O)c2)cc1 (stereo not drawn) [formoterol] | did not show any bronchodilatory effects |  |  | dose-dependently inhibited
